Tests used:
human V2 receptor = molecular target: T1, human V2 receptor (Homo sapiens, UniProt P30518); assay: Cellular in vitro assay for determining vasopressin receptor activity, V2 receptor cell line (CHO, CRE-luciferase); type: cell-based; conditions: CHO cell line transfected with human V2 receptor; [Arg8]-vasopressin at EC50 concentration, 3 hours; read-out: IC50 hV2
T1 construct: expressed in transfected cells; host or cells: CHO K1 (ATCC) expressing firefly luciferase under a CRE-responsive promoter
T1 sequence (P30518 whole entry): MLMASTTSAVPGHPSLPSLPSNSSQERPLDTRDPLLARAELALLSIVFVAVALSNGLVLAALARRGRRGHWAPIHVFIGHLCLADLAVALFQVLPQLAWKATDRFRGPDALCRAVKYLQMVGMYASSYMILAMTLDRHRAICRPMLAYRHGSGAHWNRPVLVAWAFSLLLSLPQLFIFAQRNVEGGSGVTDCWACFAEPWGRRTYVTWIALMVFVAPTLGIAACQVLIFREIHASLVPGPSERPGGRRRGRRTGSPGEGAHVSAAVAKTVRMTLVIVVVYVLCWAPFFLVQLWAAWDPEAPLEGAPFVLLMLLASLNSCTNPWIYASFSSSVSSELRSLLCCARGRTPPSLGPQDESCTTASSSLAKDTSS

human V1a receptor = molecular target: T2, human V1a receptor (Homo sapiens, UniProt P37288); assay: Cellular in vitro assay for determining vasopressin receptor activity, V1a receptor cell line (CHO, aequorin luminescence); type: cell-based; conditions: for IC50: CHO cell line transfected with human V1a receptor, [Arg]-vasopressin at EC50 concentration, read-out: IC50 hV1a; for ratio IC50 hV2/hV1a: selectivity ratio IC50 hV2 / IC50 hV1a
T2 construct: expressed in transfected cells; host or cells: CHO K1 (ATCC), also stably transfected with a modified aequorin
T2 sequence (P37288 whole entry): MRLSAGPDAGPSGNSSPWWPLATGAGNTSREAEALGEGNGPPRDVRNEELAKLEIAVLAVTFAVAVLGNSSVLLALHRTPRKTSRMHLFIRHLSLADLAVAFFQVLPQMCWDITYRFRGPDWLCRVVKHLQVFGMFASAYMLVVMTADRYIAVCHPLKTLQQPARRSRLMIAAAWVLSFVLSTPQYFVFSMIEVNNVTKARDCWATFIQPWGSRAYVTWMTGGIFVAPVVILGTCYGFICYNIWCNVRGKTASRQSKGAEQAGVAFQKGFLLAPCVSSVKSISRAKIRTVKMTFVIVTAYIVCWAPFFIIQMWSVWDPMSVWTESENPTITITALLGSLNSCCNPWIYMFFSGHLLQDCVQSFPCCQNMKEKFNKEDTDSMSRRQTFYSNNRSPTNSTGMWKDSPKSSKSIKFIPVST
Method in brief: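 Antagonism is measured in stable CHO K1 transfectants coexpressing the Gαq-coupled receptor and a calcium-sensitive aequorin photoprotein. Agonist challenge uses [Arg]-vasopressin at EC50 after a 10-minute compound exposure; IC50 values come from the luminescence signal.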

SMILES | IC50 (human V2 receptor) | IC50 (human V1a receptor) | ratio IC50 hV2/hV1a (human V1a receptor)
CNC(=O)c1ccccc1-n1cnc(Cn2nc(-c3ccc(Cl)cc3)n(C[C@H](O)C(F)(F)F)c2=O)n1 [Example 169, 2-[3-({3-(4-Chlorophenyl)-5-oxo-4-[(2S)-3,3,3-trifluoro-2-hydroxypropyl]-4,5-dihydro-1H-1,2,4-triazol-1-yl}methyl)-1H-1,2,4-triazol-1-yl]-N-methylbenzamide] | 280 nM | 2.36 nM | 118.5
O=C1CN(C(=O)c2ccccc2-n2cnc(Cn3nc(-c4ccc(Cl)cc4)n(C[C@H](O)C(F)(F)F)c3=O)n2)CCN1 [Example 171, 4-{2-[3-({3-(4-Chlorophenyl)-5-oxo-4-[(2S)-3,3,3-trifluoro-2-hydroxypropyl]-4,5-dihydro-1H-1,2,4-triazol-1-yl}methyl)-1H-1,2,4-triazol-1-yl]benzoyl}piperazin-2-one] | 7350 nM | 139 nM | 52.8
O=C(c1ccccc1-n1cnc(Cn2nc(-c3ccc(Cl)cc3)n(C[C@H](O)C(F)(F)F)c2=O)n1)N1CCOCC1 [Example 172, 5-(4-Chlorophenyl)-2-({1-[2-(morpholin-4-ylcarbonyl)phenyl]-1H-1,2,4-triazol-3-yl}methyl)-4-[(2S)-3,3,3-trifluoro-2-hydroxypropyl]-2,4-dihydro-3H-1,2,4-triazol-3-one] | 2120 nM | 3.25 nM | –
CC(C)(N)CNC(=O)c1ccccc1-n1cnc(Cn2nc(-c3ccc(Cl)cc3)n(C[C@H](O)C(F)(F)F)c2=O)n1 [Example 173, N-(2-Amino-2-methylpropyl)-2-[3-({3-(4-chlorophenyl)-5-oxo-4-[(2S)-3,3,3-trifluoro-2-hydroxypropyl]-4,5-dihydro-1H-1,2,4-triazol-1-yl}methyl)-1H-1,2,4-triazol-1-yl]benzamide] | 2610 nM | 4.28 nM | 608.2
O=C(NCC(F)(F)F)c1ccccc1-n1cnc(Cn2nc(-c3ccc(Cl)cc3)n(C[C@H](O)C(F)(F)F)c2=O)n1 [Example 174, 2-[3-({3-(4-Chlorophenyl)-5-oxo-4-[(2S)-3,3,3-trifluoro-2-hydroxypropyl]-4,5-dihydro-1H-1,2,4-triazol-1-yl}methyl)-1H-1,2,4-triazol-1-yl]-N-(2,2,2-trifluoroethyl)benzamide] | 258 nM | 5.01 nM | 51.4
O=C(c1ccccc1-n1cnc(Cn2nc(-c3ccc(Cl)cc3)n(C[C@H](O)C(F)(F)F)c2=O)n1)N1CCC(F)(F)CC1 [Example 175, 5-(4-Chlorophenyl)-2-[(1-{2-[(4,4-difluoropiperidin-1-yl)carbonyl]phenyl}-1H-1,2,4-triazol-3-yl)methyl]-4-[(2S)-3,3,3-trifluoro-2-hydroxypropyl]-2,4-dihydro-3H-1,2,4-triazol-3-one] | 1540 nM | 10.3 nM | 150.7
O=C(NC1CS(=O)(=O)C1)c1ccccc1-n1cnc(Cn2nc(-c3ccc(Cl)cc3)n(C[C@H](O)C(F)(F)F)c2=O)n1 [Example 176, 2-[3-({3-(4-Chlorophenyl)-5-oxo-4-[(2S)-3,3,3-trifluoro-2-hydroxypropyl]-4,5-dihydro-1H-1,2,4-triazol-1-yl}methyl)-1H-1,2,4-triazol-1-yl]-N-(1,1-dioxidothietan-3-yl)benzamide] | 1250 nM | 15 nM | 83.3
O=C(NCCN1CCCC1=O)c1ccccc1-n1cnc(Cn2nc(-c3ccc(Cl)cc3)n(C[C@H](O)C(F)(F)F)c2=O)n1 [Example 177, 2-[3-({3-(4-Chlorophenyl)-5-oxo-4-[(2S)-3,3,3-trifluoro-2-hydroxypropyl]-4,5-dihydro-1H-1,2,4-triazol-1-yl}methyl)-1H-1,2,4-triazol-1-yl]-N-[2-(2-oxopyrrolidin-1-yl)ethyl]benzamide] | 690 nM | 9.9 nM | 69.7
O=C1CC[C@@H](CNC(=O)c2ccccc2-n2cnc(Cn3nc(-c4ccc(Cl)cc4)n(C[C@H](O)C(F)(F)F)c3=O)n2)N1 [Example 178, 2-[3-({3-(4-Chlorophenyl)-5-oxo-4-[(2S)-3,3,3-trifluoro-2-hydroxypropyl]-4,5-dihydro-1H-1,2,4-triazol-1-yl}methyl)-1H-1,2,4-triazol-1-yl]-N-{[(2S)-5-oxopyrrolidin-2-yl]methyl}benzamide] | 1800 nM | 18.5 nM | 97.3
O=C1CC[C@H](CNC(=O)c2ccccc2-n2cnc(Cn3nc(-c4ccc(Cl)cc4)n(C[C@H](O)C(F)(F)F)c3=O)n2)N1 [Example 179, 2-[3-({3-(4-Chlorophenyl)-5-oxo-4-[(2S)-3,3,3-trifluoro-2-hydroxypropyl]-4,5-dihydro-1H-1,2,4-triazol-1-yl}methyl)-1H-1,2,4-triazol-1-yl]-N-{[(2R)-5-oxopyrrolidin-2-yl]methyl}benzamide] | 1700 nM | 6.1 nM | 278.7
CC(=O)N[C@H]1CCN(C(=O)c2ccccc2-n2cnc(Cn3nc(-c4ccc(Cl)cc4)n(C[C@H](O)C(F)(F)F)c3=O)n2)C1 [Example 180, N-[(3S)-1-{2-[3-({3-(4-Chlorophenyl)-5-oxo-4-[(2S)-3,3,3-trifluoro-2-hydroxypropyl]-4,5-dihydro-1H-1,2,4-triazol-1-yl}methyl)-1H-1,2,4-triazol-1-yl]benzoyl}pyrrolidin-3-yl]acetamide] | 2950 nM | 68 nM | 43.4
CC1(C)CN(C(=O)c2ccccc2-n2cnc(Cn3nc(-c4ccc(Cl)cc4)n(C[C@H](O)C(F)(F)F)c3=O)n2)CCN1 [Example 181, 5-(4-Chlorophenyl)-2-[(1-{2-[(3,3-dimethylpiperazin-1-yl)carbonyl]phenyl}-1H-1,2,4-triazol-3-yl)methyl]-4-[(2S)-3,3,3-trifluoro-2-hydroxypropyl]-2,4-dihydro-3H-1,2,4-triazol-3-one] | 18700 nM | 195 nM | –
O=C(NCCC(F)(F)F)c1ccccc1-n1cnc(Cn2nc(-c3ccc(Cl)cc3)n(C[C@H](O)C(F)(F)F)c2=O)n1 [Example 182, 2-[3-({3-(4-Chlorophenyl)-5-oxo-4-[(2S)-3,3,3-trifluoro-2-hydroxypropyl]-4,5-dihydro-1H-1,2,4-triazol-1-yl}methyl)-1H-1,2,4-triazol-1-yl]-N-(3,3,3-trifluoropropyl)benzamide] | 2050 nM | 24 nM | 85.4
O=C(NCC1CS(=O)(=O)C1)c1ccccc1-n1cnc(Cn2nc(-c3ccc(Cl)cc3)n(C[C@H](O)C(F)(F)F)c2=O)n1 [Example 184, 2-[3-({3-(4-Chlorophenyl)-5-oxo-4-[(2S)-3,3,3-trifluoro-2-hydroxypropyl]-4,5-dihydro-1H-1,2,4-triazol-1-yl}methyl)-1H-1,2,4-triazol-1-yl]-N-[(1,1-dioxidothietan-3-yl)methyl]benzamide] | 3100 nM | 28.5 nM | 108.8
O=C(NCCN1CCNC1=O)c1ccccc1-n1cnc(Cn2nc(-c3ccc(Cl)cc3)n(C[C@H](O)C(F)(F)F)c2=O)n1 [Example 185, 2-[3-({3-(4-Chlorophenyl)-5-oxo-4-[(2S)-3,3,3-trifluoro-2-hydroxypropyl]-4,5-dihydro-1H-1,2,4-triazol-1-yl}methyl)-1H-1,2,4-triazol-1-yl]-N-[2-(2-oxoimidazolidin-1-yl)ethyl]benzamide] | 1800 nM | 9 nM | 199.4
CC(C)(N)CNC(=O)c1cc(Cl)ccc1-n1cnc(Cn2nc(-c3ccc(Cl)cc3)n(C[C@H](O)C(F)(F)F)c2=O)n1 [Example 186, N-(2-Amino-2-methylpropyl)-5-chloro-2-[3-({3-(4-chlorophenyl)-5-oxo-4-[(2S)-3,3,3-trifluoro-2-hydroxypropyl]-4,5-dihydro-1H-1,2,4-triazol-1-yl}methyl)-1H-1,2,4-triazol-1-yl]benzamide] | 243 nM | 5.25 nM | 46.2
CNC(=O)c1cc(Cl)ccc1-n1cnc(Cn2nc(-c3ccc(Cl)cc3)n(C[C@H](O)C(F)(F)F)c2=O)n1 [Example 187, 5-chloro-2-[3-({3-(4-Chlorophenyl)-5-oxo-4-[(2S)-3,3,3-trifluoro-2-hydroxypropyl]-4,5-dihydro-1H-1,2,4-triazol-1-yl}methyl)-1H-1,2,4-triazol-1-yl]-N-methylbenzamide] | 48.5 nM | 12.3 nM | 3.9
CC1(CNC(=O)c2ccccc2-n2cnc(Cn3nc(-c4ccc(Cl)cc4)n(C[C@H](O)C(F)(F)F)c3=O)n2)COC1 [Example 188, 2-[3-({3-(4-Chlorophenyl)-5-oxo-4-[(2S)-3,3,3-trifluoro-2-hydroxypropyl]-4,5-dihydro-1H-1,2,4-triazol-1-yl}ylmethyl)-1H-1,2,4-triazol-1-yl]-N-[(3-methyloxetan-3-yl)methyl]benzamide] | 568 nM | 6.83 nM | 83.2
NC(=O)C1CN(C(=O)c2ccccc2-n2cnc(Cn3nc(-c4ccc(Cl)cc4)n(C[C@H](O)C(F)(F)F)c3=O)n2)C1 [Example 189, 1-{2-[3-({3-(4-Chlorophenyl)-5-oxo-4-[(2S)-3,3,3-trifluoro-2-hydroxypropyl]-4,5-dihydro-1H-1,2,4-triazol-1-yl}methyl)-1H-1,2,4-triazol-1-yl]benzoyl}azetidine-3-carboxamide] | 3650 nM | 60.8 nM | 60.1
O=C1NCC2(CN(C(=O)c3ccccc3-n3cnc(Cn4nc(-c5ccc(Cl)cc5)n(C[C@H](O)C(F)(F)F)c4=O)n3)C2)N1 [Example 190, 2-{2-[3-({3-(4-Chlorophenyl)-5-oxo-4-[(2S)-3,3,3-trifluoro-2-hydroxypropyl]-4,5-dihydro-1H-1,2,4-triazol-1-yl}methyl)-1H-1,2,4-triazol-1-yl]benzoyl}-2,5,7-triazaspiro[3.4]octan-6-one] | 7050 nM | 300 nM | 23.5
